The data set is described as follows: Physical stability of the composition over time. The data set is classed as physicochemical. The conditions noted are these: in composition 2, over time (three months, 5° C. and RT). Here is the method:
“Physical stability” means that the composition meets the acceptance criteria for appearance, physical attributes and functionality test (e.g. color, phase separation, dose delivery per actuation).
The table below represents physical stability of the composition 2 according to the invention at 5° C. and room temperature (RT) during three months.

Consider ivermectin, for which the “Ivermectin solubilized state, crystals formation” value is “remains solubilized over time, no crystals formation”.

The values are drawn from patent publication US10695315B2, “Composition comprising avermectin compounds without gelling agents” (Nestlé Skin Health SA, priority 2016, dated 2020).
